Article PMC10178848, “Modulating fast skeletal muscle contraction protects skeletal muscle in animal models of Duchenne muscular dystrophy” (The Journal of Clinical Investigation, 2023)

Columns and labels:
[1] = test system: mixed fast/slow mouse soleus muscle; assay: Ex vivo isometric force, mouse soleus; details: 31% type I, 60% type IIa/IIx
Experimental: Isometric force was measured ex vivo in mouse EDL and soleus muscle. EDL muscle eccentric injury was based on published protocols ([30]), with degree of lengthening and stimulation modified to yield a uniform drop in mdx isometric and peak force over 10 contractions. After isolation, muscle was mounted via 5-0 suture to a combination servomotor/force transducer (300C-LR, Aurora) between 2 electrodes connected to a stimulator (701C, Aurora) in Ringers solution at 27°C with continuously infused CO2/O2 gas mixture. Experiments were recorded with custom MATLAB software via a National Instruments PCIe-6321 board and 2090A BNC connector. Muscles were preincubated for 60 minutes with DMSO (final 0.1%)/compound before 10 eccentric contractions, 1 minute apart, with 100 milliseconds of isometric stimulation at 100 Hz and active lengthening of 0.1 L0 at a rate of 2 L0/s. After lengthening, muscles were held at 1.1 L0 with stimulation for 100 milliseconds (Supplemental Figure 2A).

young mdx mice = assay: 3-week dosing of young (weaning) mdx mice, soleus histology; type: in vivo, mouse; details: post-weaning mdx mice, 3 weeks
From the text: C57BL/6 (stock no. 000664), C57BL/10J (stock no. 000665, control for mdx experiments), C57BL/10ScSn-Dmd^mdx/J (mdx, stock no. 001801), and D2.B10 (DBA/2-congenic) Dmd^mdx (DBA/2J mdx, stock no. 013141) mice were from The Jackson Laboratory. Sprague-Dawley rats were purchased from Charles River Laboratories. For ex vivo experiments, mice were 10–16 weeks old. For in situ experiments, mice were 8–14 weeks of age. For in vivo chronic dosing studies, mdx and DBA/2J mdx were 4–5 weeks of age at study start. Dosing was via a 10 mL/kg suspension (1% methyl cellulose, 0.1% Tween 80 in water). For studies in 14-day-old preweaning mice, PO dosing was via syrup suspension (3 mg/kg/d). […]
For sterile muscle injury, mice were anesthetized with isoflurane and 50 μL cardiotoxin (12 × 10^–6 M, 217503, Millipore) injected in the TA muscle. […] 8 μm cryosections were cut and stained with H&E. For each analysis, more than 10 slides (per condition/group) containing 6 muscle sections/sample were used, and myofibers in the injured area were counted and measured with a Mirax digital scanner and HALO software ([68]). […] Image analysis was performed using ImarisX64 software (Bitplane AG), and fiber sizing was calculated using minimal Feret’s diameter ([69]). […] Fiber type, size, and central nucleation were quantified with analysis via SMASH ([70]) and ImageJ (NIH). […]

[2] = test system: dystrophic golden retriever (GRMD) dogs; assay: Plasma CK activity in GRMD dogs; type: in vivo, dog; details: 7-month-old GRMD, 14 days oral gavage
Experimental: Plasma from mice and dogs were analyzed for CK activity using standard protocols (Pointe Scientific, Thermo Fisher Scientific).
Studies were performed in two phases. In the first phase, GRMD (n = 4, female, 7 months old) were dosed PO daily with vehicle for 2 weeks, followed by a suspension of EDG-5506 (3 mg/kg daily for 2 days, then 1 mg/kg daily for 2 weeks) and then with vehicle for 2 weeks. Blood was drawn at regular intervals (2–3 draws during the vehicle baseline, 5–8 draws during the dosing period, and 2 draws during the vehicle washout). In a separate dosing period, the same 4 dogs (10 months old) were administered vehicle for 14 days with regular blood draws (6–9 for each dog across the 14-day period). CK activity (Pointe Scientific, Thermo Fisher Scientific) was measured from plasma. In the second phase, the same 4 dogs (15 months old) were fitted with a collar-bound activity monitor (Fitbark 2, Fitbark Inc.) as described previously ([42]), and baseline activity was recorded for 27 days before daily oral gavage with vehicle for 22 days. Three dogs were then dosed in a similar pattern to phase 1 with EDG-5506 (2 mg/kg for 4 days and then 2 mg/kg every other day for 7 days). The fourth dog was dosed with vehicle over the same period. […] Average daily activity (“Fitbark points”) and time performing various activities (play, rest, active) were recorded.

[3] = target: T1, ABL1(T315I)-phosphorylated (Homo sapiens, UniProt P00519, T315I); assay: KINOMEscan scanEDGE; type: binding; details: 20 uM
T1 construct: purchased Eurofins DiscoverX (KINOMEscan; SAFETYscan E/IC50 ELECT)

ALK = target: T2, ALK (Homo sapiens, UniProt Q9UM73); assay: KINOMEscan scanEDGE; type: binding; details: 20 uM
T2 construct: purchased Eurofins DiscoverX (KINOMEscan; SAFETYscan E/IC50 ELECT)

CDK7 = target: T3, CDK7 (Homo sapiens, UniProt P50613); assay: KINOMEscan scanEDGE; type: binding; details: 20 uM
T3 construct: purchased Eurofins DiscoverX (KINOMEscan; SAFETYscan E/IC50 ELECT)

CSF1R = target: T4, CSF1R (Homo sapiens, UniProt P07333); assay: KINOMEscan scanEDGE; type: binding; details: 20 uM
T4 construct: purchased Eurofins DiscoverX (KINOMEscan; SAFETYscan E/IC50 ELECT)

EGFR = target: T5, EGFR (Homo sapiens, UniProt P00533); assay: KINOMEscan scanEDGE; type: binding; details: 20 uM
T5 construct: purchased Eurofins DiscoverX (KINOMEscan; SAFETYscan E/IC50 ELECT)

GSK3B = target: T6, GSK3B (Homo sapiens, UniProt P49841); assay: KINOMEscan scanEDGE; type: binding; details: 20 uM
T6 construct: purchased Eurofins DiscoverX (KINOMEscan; SAFETYscan E/IC50 ELECT)

KIT(D816V) = target: T7, KIT(D816V) (Homo sapiens, UniProt P10721, D816V); assay: KINOMEscan scanEDGE; type: binding; details: 20 uM
T7 construct: purchased Eurofins DiscoverX (KINOMEscan; SAFETYscan E/IC50 ELECT)

LKB1 = target: T8, LKB1 (Homo sapiens, UniProt Q15831); assay: KINOMEscan scanEDGE; type: binding; details: 20 uM
T8 construct: purchased Eurofins DiscoverX (KINOMEscan; SAFETYscan E/IC50 ELECT)

p38-alpha = target: T9, p38-alpha (Homo sapiens, UniProt Q16539); assay: KINOMEscan scanEDGE; type: binding; details: 20 uM
T9 construct: purchased Eurofins DiscoverX (KINOMEscan; SAFETYscan E/IC50 ELECT)

p38-beta = target: T10, p38-beta (Homo sapiens, UniProt Q15759); assay: KINOMEscan scanEDGE; type: binding; details: 20 uM
T10 construct: purchased Eurofins DiscoverX (KINOMEscan; SAFETYscan E/IC50 ELECT)

PLK1 = target: T11, PLK1 (Homo sapiens, UniProt P53350); assay: KINOMEscan scanEDGE; type: binding; details: 20 uM
T11 construct: purchased Eurofins DiscoverX (KINOMEscan; SAFETYscan E/IC50 ELECT)

RAF1 = target: T12, RAF1 (Homo sapiens, UniProt P04049); assay: KINOMEscan scanEDGE; type: binding; details: 20 uM
T12 construct: purchased Eurofins DiscoverX (KINOMEscan; SAFETYscan E/IC50 ELECT)

TRKA = target: T13, TRKA (Homo sapiens, UniProt P04629); assay: KINOMEscan scanEDGE; type: binding; details: 20 uM
T13 construct: purchased Eurofins DiscoverX (KINOMEscan; SAFETYscan E/IC50 ELECT)

T9 sequence (Q16539 whole entry): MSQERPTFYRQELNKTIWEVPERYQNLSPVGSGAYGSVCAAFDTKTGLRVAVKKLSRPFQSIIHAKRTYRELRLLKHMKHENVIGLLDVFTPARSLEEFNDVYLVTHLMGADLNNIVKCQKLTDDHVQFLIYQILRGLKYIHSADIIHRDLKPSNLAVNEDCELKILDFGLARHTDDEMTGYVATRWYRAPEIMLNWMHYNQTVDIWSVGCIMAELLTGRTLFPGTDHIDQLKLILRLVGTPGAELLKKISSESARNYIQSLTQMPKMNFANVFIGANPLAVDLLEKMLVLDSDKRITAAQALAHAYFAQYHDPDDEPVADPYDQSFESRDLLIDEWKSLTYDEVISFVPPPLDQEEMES
T10 sequence (Q15759 whole entry): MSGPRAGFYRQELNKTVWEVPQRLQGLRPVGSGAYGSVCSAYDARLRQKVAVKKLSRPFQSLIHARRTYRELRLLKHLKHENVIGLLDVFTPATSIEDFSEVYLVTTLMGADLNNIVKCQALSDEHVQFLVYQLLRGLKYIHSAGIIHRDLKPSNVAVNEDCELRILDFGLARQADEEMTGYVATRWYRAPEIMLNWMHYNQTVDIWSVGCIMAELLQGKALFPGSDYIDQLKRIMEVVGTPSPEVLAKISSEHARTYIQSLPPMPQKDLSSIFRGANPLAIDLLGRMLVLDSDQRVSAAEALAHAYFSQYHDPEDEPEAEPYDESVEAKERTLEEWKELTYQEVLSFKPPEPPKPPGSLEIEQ
T3 sequence (P50613 whole entry): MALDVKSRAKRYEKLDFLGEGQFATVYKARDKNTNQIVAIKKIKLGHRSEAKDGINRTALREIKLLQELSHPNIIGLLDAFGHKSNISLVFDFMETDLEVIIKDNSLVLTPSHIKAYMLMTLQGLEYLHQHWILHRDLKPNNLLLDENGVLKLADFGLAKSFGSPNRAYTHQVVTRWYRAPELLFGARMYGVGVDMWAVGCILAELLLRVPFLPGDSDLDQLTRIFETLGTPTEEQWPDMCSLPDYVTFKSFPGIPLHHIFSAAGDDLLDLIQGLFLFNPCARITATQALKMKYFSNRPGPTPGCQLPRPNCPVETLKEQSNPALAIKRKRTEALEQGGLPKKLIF
T2 sequence (Q9UM73 19-1620): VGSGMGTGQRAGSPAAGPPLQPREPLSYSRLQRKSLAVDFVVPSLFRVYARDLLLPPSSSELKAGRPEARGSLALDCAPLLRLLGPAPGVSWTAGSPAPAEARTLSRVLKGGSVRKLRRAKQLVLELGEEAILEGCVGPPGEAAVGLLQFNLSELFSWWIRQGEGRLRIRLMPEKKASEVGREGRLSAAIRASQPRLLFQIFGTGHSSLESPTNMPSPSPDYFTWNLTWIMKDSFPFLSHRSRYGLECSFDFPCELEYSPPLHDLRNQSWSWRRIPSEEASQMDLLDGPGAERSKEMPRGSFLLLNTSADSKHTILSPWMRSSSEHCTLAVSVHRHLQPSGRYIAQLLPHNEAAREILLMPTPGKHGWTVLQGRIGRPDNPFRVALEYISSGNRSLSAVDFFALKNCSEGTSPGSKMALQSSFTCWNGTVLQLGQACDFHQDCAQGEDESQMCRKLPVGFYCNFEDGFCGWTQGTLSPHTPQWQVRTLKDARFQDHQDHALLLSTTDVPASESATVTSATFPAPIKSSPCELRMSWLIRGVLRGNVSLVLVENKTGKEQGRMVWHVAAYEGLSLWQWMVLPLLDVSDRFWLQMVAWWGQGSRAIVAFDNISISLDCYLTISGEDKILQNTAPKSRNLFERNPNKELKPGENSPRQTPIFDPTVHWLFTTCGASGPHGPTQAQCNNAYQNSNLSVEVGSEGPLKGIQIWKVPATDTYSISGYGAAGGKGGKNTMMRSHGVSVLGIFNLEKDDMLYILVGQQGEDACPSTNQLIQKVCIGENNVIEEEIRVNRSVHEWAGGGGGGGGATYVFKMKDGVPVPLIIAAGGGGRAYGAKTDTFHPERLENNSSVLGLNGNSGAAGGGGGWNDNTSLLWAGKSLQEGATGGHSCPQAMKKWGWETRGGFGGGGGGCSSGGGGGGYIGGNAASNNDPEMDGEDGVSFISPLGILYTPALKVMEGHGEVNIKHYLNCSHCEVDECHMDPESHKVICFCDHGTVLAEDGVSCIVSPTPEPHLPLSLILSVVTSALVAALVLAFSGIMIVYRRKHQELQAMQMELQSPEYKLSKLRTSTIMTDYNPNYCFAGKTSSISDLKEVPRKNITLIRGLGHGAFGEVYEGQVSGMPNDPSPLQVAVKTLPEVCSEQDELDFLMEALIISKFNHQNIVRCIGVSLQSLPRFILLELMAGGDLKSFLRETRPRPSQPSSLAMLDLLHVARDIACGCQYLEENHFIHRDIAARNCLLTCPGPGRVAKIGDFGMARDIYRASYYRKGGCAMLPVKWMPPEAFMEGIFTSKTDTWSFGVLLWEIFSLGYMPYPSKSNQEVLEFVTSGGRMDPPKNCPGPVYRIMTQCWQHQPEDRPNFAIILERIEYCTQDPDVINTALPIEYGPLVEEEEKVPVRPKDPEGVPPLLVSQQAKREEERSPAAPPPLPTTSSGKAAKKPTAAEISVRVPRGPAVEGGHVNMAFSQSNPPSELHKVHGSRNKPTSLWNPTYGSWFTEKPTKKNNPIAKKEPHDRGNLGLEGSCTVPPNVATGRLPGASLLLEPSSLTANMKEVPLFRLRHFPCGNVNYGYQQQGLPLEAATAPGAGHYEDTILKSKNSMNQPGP
T5 sequence (P00533 25-1210): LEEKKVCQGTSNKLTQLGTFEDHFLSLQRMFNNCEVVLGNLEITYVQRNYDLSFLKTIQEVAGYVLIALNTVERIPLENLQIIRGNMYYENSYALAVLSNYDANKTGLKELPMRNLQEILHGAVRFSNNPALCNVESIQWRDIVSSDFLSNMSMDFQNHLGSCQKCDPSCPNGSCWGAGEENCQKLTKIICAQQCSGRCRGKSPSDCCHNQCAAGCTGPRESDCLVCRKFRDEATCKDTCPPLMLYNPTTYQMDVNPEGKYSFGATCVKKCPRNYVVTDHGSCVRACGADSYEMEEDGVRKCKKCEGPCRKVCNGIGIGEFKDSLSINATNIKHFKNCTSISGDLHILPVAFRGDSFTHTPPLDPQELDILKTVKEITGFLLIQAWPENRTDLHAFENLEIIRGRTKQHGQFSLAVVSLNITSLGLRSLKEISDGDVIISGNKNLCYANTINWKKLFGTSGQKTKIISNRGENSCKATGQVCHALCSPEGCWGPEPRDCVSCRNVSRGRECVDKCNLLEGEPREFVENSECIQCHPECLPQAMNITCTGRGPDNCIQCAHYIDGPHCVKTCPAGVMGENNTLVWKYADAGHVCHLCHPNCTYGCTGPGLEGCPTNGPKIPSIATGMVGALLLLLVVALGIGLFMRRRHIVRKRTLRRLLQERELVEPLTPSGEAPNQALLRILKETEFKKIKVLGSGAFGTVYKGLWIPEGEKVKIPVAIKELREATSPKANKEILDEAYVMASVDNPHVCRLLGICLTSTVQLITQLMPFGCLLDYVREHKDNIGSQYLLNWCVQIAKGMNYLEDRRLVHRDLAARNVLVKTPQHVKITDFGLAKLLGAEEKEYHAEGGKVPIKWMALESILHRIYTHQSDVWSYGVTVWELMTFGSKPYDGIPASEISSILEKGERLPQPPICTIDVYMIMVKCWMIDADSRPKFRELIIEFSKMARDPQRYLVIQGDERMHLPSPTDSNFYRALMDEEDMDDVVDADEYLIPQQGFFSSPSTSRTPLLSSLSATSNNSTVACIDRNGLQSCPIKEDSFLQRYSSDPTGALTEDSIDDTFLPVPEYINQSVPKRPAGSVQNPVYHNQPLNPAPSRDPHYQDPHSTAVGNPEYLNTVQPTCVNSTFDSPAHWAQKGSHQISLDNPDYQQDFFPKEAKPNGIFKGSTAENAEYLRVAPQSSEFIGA
T12 sequence (P04049 whole entry): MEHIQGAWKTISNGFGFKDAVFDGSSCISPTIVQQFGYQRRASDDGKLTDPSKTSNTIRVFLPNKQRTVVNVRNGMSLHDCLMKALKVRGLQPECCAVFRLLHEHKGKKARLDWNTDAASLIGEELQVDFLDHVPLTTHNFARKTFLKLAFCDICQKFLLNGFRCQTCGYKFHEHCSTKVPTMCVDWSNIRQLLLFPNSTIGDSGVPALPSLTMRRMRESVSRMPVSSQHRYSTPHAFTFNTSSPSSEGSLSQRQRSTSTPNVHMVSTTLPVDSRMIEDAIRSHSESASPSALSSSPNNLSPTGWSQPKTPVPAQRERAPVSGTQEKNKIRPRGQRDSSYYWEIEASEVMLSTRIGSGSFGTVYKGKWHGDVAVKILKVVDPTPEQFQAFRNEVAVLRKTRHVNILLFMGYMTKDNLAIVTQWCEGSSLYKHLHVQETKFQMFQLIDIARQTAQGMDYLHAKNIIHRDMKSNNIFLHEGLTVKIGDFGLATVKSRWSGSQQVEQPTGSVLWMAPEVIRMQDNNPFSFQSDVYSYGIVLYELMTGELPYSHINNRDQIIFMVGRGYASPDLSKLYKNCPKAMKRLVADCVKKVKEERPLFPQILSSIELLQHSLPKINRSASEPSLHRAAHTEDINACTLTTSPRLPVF
T8 sequence (Q15831 whole entry): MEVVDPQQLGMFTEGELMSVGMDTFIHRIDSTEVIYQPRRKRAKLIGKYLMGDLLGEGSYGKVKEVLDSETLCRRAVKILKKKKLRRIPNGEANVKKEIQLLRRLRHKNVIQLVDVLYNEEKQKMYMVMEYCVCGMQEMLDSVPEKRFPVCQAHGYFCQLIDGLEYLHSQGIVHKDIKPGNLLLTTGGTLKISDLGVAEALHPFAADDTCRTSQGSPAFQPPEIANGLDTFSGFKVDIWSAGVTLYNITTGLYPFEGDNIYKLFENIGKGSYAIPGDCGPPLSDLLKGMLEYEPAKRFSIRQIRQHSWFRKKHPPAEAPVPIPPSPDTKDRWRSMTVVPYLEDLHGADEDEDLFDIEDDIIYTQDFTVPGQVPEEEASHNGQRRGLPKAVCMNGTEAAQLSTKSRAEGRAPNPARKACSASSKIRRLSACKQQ

O=c1ccc(-c2cnc(OCC(F)(F)F)nc2)nn1Cc1cncc(F)c1 [EDG-5506]
ex vivo force inhibition [1]: partial force inhibition
central nucleation in soleus (young mdx mice): decreased central nucleation
decrease in CK [2]: more than 50%
binding, % of control [3]: 94 % of control
binding, % of control (ALK): 95 % of control
binding, % of control (CDK7): 83 % of control
binding, % of control (CSF1R): 100 % of control
binding, % of control (EGFR): 100 % of control
binding, % of control (GSK3B): 99 % of control
binding, % of control (KIT(D816V)): 87 % of control
binding, % of control (LKB1): 86 % of control
binding, % of control (p38-alpha): 100 % of control
binding, % of control (p38-beta): 54 % of control
binding, % of control (PLK1): 100 % of control
binding, % of control (RAF1): 100 % of control
binding, % of control (TRKA): 98 % of control
